From patent US7119075B2, “Use of herbal agents for potentiation of bioefficacy of anti infectives” (priority 2003, dated 2006)

Assays:
Test in all cases: Inhibitory effect of bioenhancers alone
Type in all cases: cell-based
[1] = tested on: Staphylococcus hemolyticus ATCC 29978
[2] = tested on: Bacillus cereus RRL 02
[3] = tested on: Aspergillus fumigatus SI-1
[4] = tested on: Salmonella typhi AIIMS 2
[5] = tested on: Candida tropicalis ATCC 750
[6] = tested on: Staphylococcus epidermidis ATCC 12228
[7] = tested on: Mycobacterium avium ATCC 49601
[8] = tested on: Klebsiella pneumoniae ATCC 75388
[9] = tested on: Escherichia coli ATCC 25922
[10] = tested on: Methicillin Resistant Staphylococcus aureus (MRSA)
[11] = tested on: Mycobacterium tuberculosis 615
[12] = tested on: Pseudomonas aeruginosa ATCC 27583
[13] = tested on: Candida krusei ATCC 6258
[14] = tested on: Staphylococcus aureus ATCC 29313
[15] = tested on: Mycobacterium intracelluare ATCC 13950
[16] = tested on: Mycobacterium tuberculosis H37Rv
[17] = tested on: Aspergillus flavus MTCC 1973

Measured: inhibitory effect

3′,5-Dihydroxy flavone 7-O-β-D-galacturonide-4′-O-β-D-glucopyranoside [pure molecule of Cuminum cyminum]
++++ (No inhibition): [1]; conc. 0.2 μg/ml | [1]; conc. 0.8 μg/ml | [1]; conc. 3.12 μg/ml | [1]; conc. 12.5 μg/ml | [1]; conc. 50 μg/ml | [1]; conc. 100 μg/ml | [2]; conc. 0.2 μg/ml | [2]; conc. 0.8 μg/ml | [2]; conc. 3.12 μg/ml | [2]; conc. 12.5 μg/ml | [2]; conc. 50 μg/ml | [2]; conc. 100 μg/ml | [3]; conc. 0.2 μg/ml | [3]; conc. 0.8 μg/ml | [3]; conc. 3.12 μg/ml | [3]; conc. 12.5 μg/ml | [3]; conc. 50 μg/ml | [3]; conc. 100 μg/ml | [4]; conc. 0.2 μg/ml | [4]; conc. 0.8 μg/ml | [4]; conc. 3.12 μg/ml | [4]; conc. 12.5 μg/ml | [4]; conc. 50 μg/ml | [4]; conc. 100 μg/ml | [5]; conc. 0.2 μg/ml | [5]; conc. 0.8 μg/ml | [5]; conc. 3.12 μg/ml | [5]; conc. 12.5 μg/ml | [5]; conc. 50 μg/ml | [5]; conc. 100 μg/ml | [6]; conc. 0.2 μg/ml | [6]; conc. 0.8 μg/ml | [6]; conc. 3.12 μg/ml | [6]; conc. 12.5 μg/ml | [6]; conc. 50 μg/ml | [6]; conc. 100 μg/ml | [7]; conc. 0.2 μg/ml | [7]; conc. 0.8 μg/ml | [7]; conc. 3.12 μg/ml | [7]; conc. 12.5 μg/ml | [7]; conc. 50 μg/ml | [7]; conc. 100 μg/ml | [8]; conc. 0.2 μg/ml | [8]; conc. 0.8 μg/ml | [8]; conc. 3.12 μg/ml | [8]; conc. 12.5 μg/ml | [8]; conc. 50 μg/ml | [8]; conc. 100 μg/ml | [9]; conc. 0.2 μg/ml | [9]; conc. 0.8 μg/ml | [9]; conc. 3.12 μg/ml | [9]; conc. 12.5 μg/ml | [9]; conc. 50 μg/ml | [9]; conc. 100 μg/ml | [10]; conc. 0.2 μg/ml | [10]; conc. 0.8 μg/ml | [10]; conc. 3.12 μg/ml | [10]; conc. 12.5 μg/ml | [10]; conc. 50 μg/ml | [10]; conc. 100 μg/ml | [11]; conc. 0.2 μg/ml | [11]; conc. 0.8 μg/ml | [11]; conc. 3.12 μg/ml | [11]; conc. 12.5 μg/ml | [11]; conc. 50 μg/ml | [11]; conc. 100 μg/ml | [12]; conc. 0.2 μg/ml | [12]; conc. 0.8 μg/ml | [12]; conc. 3.12 μg/ml | [12]; conc. 12.5 μg/ml | [12]; conc. 50 μg/ml | [12]; conc. 100 μg/ml | [13]; conc. 0.2 μg/ml | [13]; conc. 0.8 μg/ml | [13]; conc. 3.12 μg/ml | [13]; conc. 12.5 μg/ml | [13]; conc. 50 μg/ml | [13]; conc. 100 μg/ml | [14]; conc. 0.2 μg/ml | [14]; conc. 0.8 μg/ml | [14]; conc. 3.12 μg/ml | [14]; conc. 12.5 μg/ml | [14]; conc. 50 μg/ml | [14]; conc. 100 μg/ml | [15]; conc. 0.2 μg/ml | [15]; conc. 0.8 μg/ml | [15]; conc. 3.12 μg/ml | [15]; conc. 12.5 μg/ml | [15]; conc. 50 μg/ml | [15]; conc. 100 μg/ml | [16]; conc. 0.2 μg/ml | [16]; conc. 0.8 μg/ml | [16]; conc. 3.12 μg/ml | [16]; conc. 12.5 μg/ml | [16]; conc. 50 μg/ml | [16]; conc. 100 μg/ml | [17]; conc. 0.2 μg/ml | [17]; conc. 0.8 μg/ml | [17]; conc. 3.12 μg/ml | [17]; conc. 12.5 μg/ml | [17]; conc. 50 μg/ml | [17]; conc. 100 μg/ml
